Several values for one entry are separate records, joined by “and”; a condition that tells them apart may be missing. Equal values may be shown once. Read-outs that look alike come from different tables or passages of the source. Blank lines part the entries; values can stand above or below the compound they belong to.
Key:
[1] = Particle size determination by dry method (Malvern Mastersizer 2000, Scirocco 2000 dry unit); details: for d10 / d50 / d90: not micronized, as obtained by the process
Method: Rasagiline mesylate is further micronized using conventional micronization techniques. After micronization, the sample is preferably passed through 100 mesh sieve and the particle size is measured using a Malvern Mastersizer 2000 dry unit, Scirocco 2000 which is commercially available from Malvern Instruments Ltd., United Kingdom.

[2] = Source text: The present inventors have conducted extensive research work for solving the problem of agglomerization of micronized Rasagiline or salt thereof.
[3] = wet method
Remark: listed apart in the source
[4] = Pack-1 (Glass bottle), after one month
[5] = Pack-1 (Glass bottle), micronized sample (initial)
[6] = Pack-2 (PET bottle), after one month
[7] = Pack-2 (PET bottle), micronized sample (initial)
[8] = room temperature, glass bottle or PET bottle, about one month
[9] = after micronization, dry method
[10] = before micronization, dry method

size of 90% of the total amount by volume of particles ([1]; micronized, dry method): less than 20 microns | d10 [1]: 2-9 μ | d50 [1]: 10-20 μ | d90 [1]: 40-80 μ
Structure (SMILES): Br.C#CCN[C@@H]1CCc2ccccc21 [R(+)-Rasagiline hydrobromide, (1R)-2,3-dihydro-N-2-propynyl-1H-indane-1-amine hydrobromide]

D10 [2, 4]: 1.70 | D50 [2, 4]: 3.66 | D90 [2, 4]: 7.55 | D10 [2, 5]: 1.40 | D50 [2, 5]: 3.33 | D90 [2, 5]: 7.88 | D10 [2, 6]: 1.41 | D50 [2, 6]: 2.97 | D90 [2, 6]: 5.64 | D10 [2, 7]: 1.43 | D50 [2, 7]: 2.90 | D90 [2, 7]: 5.74 | Particle Size Distribution D90 ([3]; after micronization): 796.35 micron and 1007.18 micron | Particle Size Distribution D50 ([3]; before micronization): 141.23 micron and 174.70 micron | Particle Size Distribution D90 ([3]; before micronization): 590.45 micron and 832.14 micron | Particle Size Distribution D10 [1, 9]: 1.44 micron and 1.43 micron | Particle Size Distribution D50 [1, 9]: 3.00 micron and 2.90 micron | Particle Size Distribution D90 [1, 9]: 5.94 micron and 5.74 micron | Particle Size Distribution D10 [1, 10]: 3.65 micron and 3.18 micron | Particle Size Distribution D50 [1, 10]: 15.27 micron and 13.33 micron | Particle Size Distribution D90 [1, 10]: 57.38 micron and 47.11 micron | particle size of 50% of particles ([1]; micronized): less than or equal to 4 μ | particle size of 90% of particles ([1]; micronized): less than or equal to 9 μ | d10 [1]: 2-9 μ | d50 [1]: 10-20 μ | d90 [1]: 40-80 μ
Structure (SMILES): C#CCN[C@@H]1CCc2ccccc21.CS(=O)(=O)O [R(+)-Rasagiline mesylate, (1R)-2,3-dihydro-N-2-propynyl-1H-indane-1-amine mesylate]
Agglomeration of the particles on storage [2, 8]: no agglomeration of the particles was observed | Change in XRPD pattern and particle size on storage [2, 8]: no change in XRPD pattern and particle size

size of 90% of the total amount by volume of particles (micronized): less than 20 microns | size of 90% particles (not micronized): less than 500 microns
Structure (SMILES): C#CCN[C@@H]1CCc2ccccc21.Cl [R-(+)-Rasagiline hydrochloride, (1R)-2,3-dihydro-N-2-propynyl-1H-indane-1-amine hydrochloride]

Source: US8741962B2, “Process for preparation of Rasagiline and salts thereof” (USV Limited, priority 2009, dated 2014)
